In EP4678644A1, “SUBSTITUTED DIHYDROTHIENOPYRIMIDINE COMPOUND, PREPARATION METHOD THEREFOR, AND USE THEREOF” (Shanghai Yidi Biotechnology Co., Ltd., priority 2023, dated 2024):

Legend:
PDE4B2 [1] = molecular target: T1, PDE4B2 (Homo sapiens, UniProt Q07343); assay: PDE4B2 enzyme experiment (AMP-glo, cAMP substrate); type: biochemical
T1 construct: expressed in transfected cells; host or cells: Flp-In-293 (Flpin-293-PDE4B2 [sic])

PDE4B2 [2] = molecular target: T1, PDE4B2; assay: PDE4B2 cell experiment (cAMP, Eu-cAMP tracer / Ulight-anti-cAMP); type: cell-based; conditions: Flpin-293-PDE4B2 cells; for IC50: Foskolin; for Cell Inhibition% @1 nM / inhibition at 0.001 µM: 1 nM; for Cell Inhibition% @10 nM / inhibition at 0.01 µM: 10 nM; for Cell Inhibition% @100 nM / inhibition at 0.1 µM: 100 nM
PDE4D2 = PDE4D2 (Homo sapiens, UniProt Q08499); assay: PDE4D2 enzyme experiment (AMP-glo, cAMP substrate); type: biochemical; conditions: read-out: PDE4D2 IC50 Binding
Sequence of PDE4D2 (Q08499 303-809 limits assumed): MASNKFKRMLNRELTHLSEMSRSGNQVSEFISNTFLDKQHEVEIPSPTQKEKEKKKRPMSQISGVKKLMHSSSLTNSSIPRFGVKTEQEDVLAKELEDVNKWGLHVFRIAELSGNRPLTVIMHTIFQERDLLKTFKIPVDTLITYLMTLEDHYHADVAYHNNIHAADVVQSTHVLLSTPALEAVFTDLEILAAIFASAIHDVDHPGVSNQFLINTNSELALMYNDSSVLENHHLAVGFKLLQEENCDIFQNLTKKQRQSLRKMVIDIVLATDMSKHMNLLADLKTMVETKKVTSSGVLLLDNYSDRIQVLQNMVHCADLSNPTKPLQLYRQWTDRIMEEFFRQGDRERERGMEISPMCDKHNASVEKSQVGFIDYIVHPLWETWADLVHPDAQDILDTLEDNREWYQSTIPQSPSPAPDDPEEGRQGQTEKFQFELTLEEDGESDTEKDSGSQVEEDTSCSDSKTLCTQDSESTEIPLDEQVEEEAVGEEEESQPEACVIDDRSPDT
Text: Inhibition rate % ^= (1 - (RLUpositive control - RLUcompound)/(RLUpositive control - RLUnegative control)) * 100.

T1 sequence (Q07343 1-564 isoform Q07343-2): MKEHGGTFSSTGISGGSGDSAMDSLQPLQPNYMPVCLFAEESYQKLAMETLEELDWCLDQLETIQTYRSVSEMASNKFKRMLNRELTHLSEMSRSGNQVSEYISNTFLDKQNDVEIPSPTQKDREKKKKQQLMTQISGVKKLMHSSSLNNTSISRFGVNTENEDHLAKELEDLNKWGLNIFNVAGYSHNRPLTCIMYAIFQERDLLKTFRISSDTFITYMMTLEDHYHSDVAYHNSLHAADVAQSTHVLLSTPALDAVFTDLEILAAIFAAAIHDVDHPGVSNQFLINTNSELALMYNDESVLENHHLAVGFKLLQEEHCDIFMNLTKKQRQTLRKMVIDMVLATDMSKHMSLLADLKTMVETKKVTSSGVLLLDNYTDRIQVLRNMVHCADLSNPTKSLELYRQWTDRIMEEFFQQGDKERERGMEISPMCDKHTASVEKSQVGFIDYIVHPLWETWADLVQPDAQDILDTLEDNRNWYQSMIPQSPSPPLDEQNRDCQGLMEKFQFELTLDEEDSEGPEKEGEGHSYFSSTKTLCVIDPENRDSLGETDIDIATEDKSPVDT

| SMILES | IC50 (PDE4B2 [1]) [nM] | IC50 (PDE4B2 [2]) [nM] | IC50 (PDE4D2) [nM] | Cell Inhibition% @1 nM (PDE4B2 [2]) [%] | Cell Inhibition% @10 nM (PDE4B2 [2]) [%] | Cell Inhibition% @100 nM (PDE4B2 [2]) [%] | inhibition at 0.001 µM (PDE4B2 [2]) [%] | inhibition at 0.01 µM (PDE4B2 [2]) [%] | inhibition at 0.1 µM (PDE4B2 [2]) [%] |
| --- | --- | --- | --- | --- | --- | --- | --- | --- | --- |
| [O-][S+]1CCc2nc(N3CCc4ncsc4C3)nc(NC3(CO)CCC3)c21 (stereo not drawn) [Compound 15] | 20.4 | 150 | 28.6 | – | – | – | – | – | – |
| Cc1nc2c(s1)CN(c1nc3c(c(NC4(CO)CCC4)n1)[S+]([O-])CC3)CC2 (stereo not drawn) [Compound 16] | 10.7 | 78 | 17.3 | – | – | – | – | – | – |
| COc1ccc2c(c1)CCN(c1nc3c(c(NC4(CO)CCC4)n1)[S+]([O-])CC3)C2 (stereo not drawn) [Compound 22] | 0.97 | 14.8 | 1.46 | – | – | – | – | – | – |
| [O-][S+]1CCc2nc(N3CCc4cc(Cl)cc(Cl)c4C3)nc(NC3(CO)CCC3)c21 (stereo not drawn) [Compound 25] | 0.92 | 23.7 | 2.19 | – | – | – | – | – | – |
| [O-][S+]1CCc2nc(N3CCc4cc(Cl)c(Cl)cc4C3)nc(NC3(CO)CCC3)c21 (stereo not drawn) [Compound 26] | 0.77 | 19.7 | 2.51 | – | – | – | – | – | – |
| [O-][S+]1CCc2nc(N3CCc4cc5c(cc4C3)OCO5)nc(NC3(CO)CCC3)c21 (stereo not drawn) [Compound 35] | 1.32 | 46.1 | 3.89 | – | – | – | – | – | – |
| [O-][S@+]1CCc2nc(N3CCc4sc(I)cc4C3)nc(NC3(CO)CCC3)c21 [Compound 56, (R)-4-((1-(hydroxymethyl)cyclobutyl)amino)-2-(2-iodo-6,7-dihydrothieno[3,2-c]pyridin-5(4H)-yl)-6,7-dihydrothieno[2,2-d]pyrimidine 5-oxide] | 0.998 | – | 1.95 | – | – | – | – | 40.6 | 90.2 |
| [O-][S+]1CCc2nc(N3Cc4ccc(Br)cc4C3)nc(NC3(CO)CCC3)c21 (stereo not drawn) [Compound 59] | 2.12 | – | 4.75 | – | 42.65 | 85.82 | – | – | – |
| [O-][S+]1CCc2nc(N3CCc4cc(Cl)ncc4C3)nc(NC3(CO)CCC3)c21 (stereo not drawn) [Compound 78] | 1.82 | – | 4.02 | 2.20 | 32.09 | 86.33 | – | – | – |
| [O-][S+]1CCc2nc(N3CCc4cc(N5CC(F)C5)ccc4C3)nc(NC3(CO)CCC3)c21 (stereo not drawn) [Compound 89] | 0.705 | – | 1.63 | 3.47 | 37.42 | 95.32 | – | – | – |
| Cn1c2c(c3ccc(Cl)cc3c1=O)CCN(c1nc3c(c(NC4(CO)CCC4)n1)[S+]([O-])CC3)C2 (stereo not drawn) [Compound 98] | 0.889 | – | 2.04 | -1.71 | 46.69 | 95.76 | – | – | – |
| COc1nc2c(c3ccc(Cl)cc13)CCN(c1nc3c(c(NC4(CO)CCC4)n1)[S+]([O-])CC3)C2 (stereo not drawn) [Compound 99] | 1.24 | – | 3.14 | 4.18 | 43.68 | 96.53 | – | – | – |
| COc1nc2cc(Cl)ccc2c2c1CN(c1nc3c(c(NC4(CO)CCC4)n1)[S+]([O-])CC3)CC2 (stereo not drawn) [Compound 101] | 0.655 | 13.2 | 1.96 | – | – | – | – | – | – |
| [O-][S+]1CCc2nc(N3CC[C@@H]4c5cccc(Cl)c5OC[C@H]4C3)nc(NC3(CO)CCC3)c21 (stereo partly drawn) [Compound 107] | 1.14 | – | 2.95 | 2.82 | 52.48 | 98.12 | – | – | – |
| [O-][S+]1CCc2nc(N3CC[C@@H]4c5cc(Cl)ccc5OC[C@H]4C3)nc(NC3(CO)CCC3)c21 (stereo partly drawn) [Compound 108] | 1.41 | – | 4.17 | -0.82 | 37.35 | 95.13 | – | – | – |
| [O-][S+]1CCc2nc(N3CC[C@H]4c5ccc(Cl)cc5OC[C@H]4C3)nc(NC3(CO)CCC3)c21 (stereo partly drawn) [Compound 116] | 3.01 | – | 12.4 | 2.17 | 16.91 | 73.36 | – | – | – |
| O=C(O)Cc1ccc(Nc2nc(N3CCc4cc(Cl)ccc4C3)nc3c2[S@@+]([O-])CC3)cc1 [Compound 128] | 5.43 | – | 18.1 | -0.97 | 6.68 | 25.39 | – | – | – |

Stronger by IC50 (PDE4B2 [1]), values ahead:

| IC50 (PDE4B2 [1]) [nM] | IC50 (PDE4B2 [2]) [nM] | IC50 (PDE4D2) [nM] | Cell Inhibition% @1 nM (PDE4B2 [2]) [%] | Cell Inhibition% @10 nM (PDE4B2 [2]) [%] | Cell Inhibition% @100 nM (PDE4B2 [2]) [%] | inhibition at 0.001 µM (PDE4B2 [2]) [%] | inhibition at 0.01 µM (PDE4B2 [2]) [%] | inhibition at 0.1 µM (PDE4B2 [2]) [%] | SMILES |
| --- | --- | --- | --- | --- | --- | --- | --- | --- | --- |
| 0.38 | 10.4 | 0.92 | – | – | – | – | – | – | [O-][S+]1CCc2nc(N3CCc4cc(Br)ccc4C3)nc(NC3(CO)CCC3)c21 (stereo not drawn) [Compound 24] |
| 0.55 | 8.11 | 0.88 | – | – | – | – | – | – | O=[N+]([O-])c1ccc2c(c1)CCN(c1nc3c(c(NC4(CO)CCC4)n1)[S+]([O-])CC3)C2 (stereo not drawn) [Compound 27] |
| 0.201 | – | 0.405 | 23.54 | 74.22 | 97.65 | – | – | – | [O-][S+]1CCc2nc(N3CCc4c(nn5cc(F)ccc45)C3)nc(NC3(CO)CCC3)c21 (stereo not drawn) [Compound 32] |
| 0.596 | – | 1.18 | – | – | – | 17.1 | 38.4 | 70.1 | O=c1[nH]c2cc3c(cc2o1)CN(c1nc2c(c(NC4(CO)CCC4)n1)[S@+]([O-])CC2)CC3 [Compound 51, (R)-6-(4-((1-(hydroxymethyl)cyclobutyl)amino)-5-oxido-6,7-dihydrothieno[3,2-d]pyrimidin-2-yl)-5,6,7,8-tetrahydrooxazolo[4,5-g]isoquinolin-2(1H)-one] |
| 0.488 | – | 0.826 | – | 81.81 | 99.55 | – | – | – | [O-][S+]1CCc2nc(N3CCc4cc(C(F)(F)F)ccc4C3)nc(NC3(CO)CCC3)c21 (stereo not drawn) [Compound 52] |
| 0.332 | – | 0.655 | 14.20 | 47.36 | 96.42 | – | – | – | [O-][S+]1CCc2nc(N3CCc4cc(I)ccc4C3)nc(NC3(CO)CCC3)c21 (stereo not drawn) [Compound 67] |
| 0.476 | – | 0.77 | – | – | – | 8.99 | 56.3 | 96.1 | Cn1c(=O)oc2cc3c(cc21)CCN(c1nc2c(c(NC4(CO)CCC4)n1)[S@+]([O-])CC2)C3 [Compound 68, (R)-6-(4-((1-(hydroxymethyl)cyclobutyl)amino)-5-oxido-6,7-dihydrothieno[3,2-d]pyrimidin-2-yl)-1-methyl-5,6,7,8-tetrahydrooxazolo[4,5-g]isoquinolin-2(1H)-one] |
| 0.05 | – | 0.049 | 61.02 | 99.37 | 100.73 | – | – | – | Cn1ccc(-c2ccc3c(c2)CCN(c2nc4c(c(NC5(CO)CCC5)n2)[S+]([O-])CC4)C3)n1 (stereo not drawn) [Compound 77] |
| 0.366 | – | 0.764 | 19.08 | 77.47 | 99.87 | – | – | – | COc1ccc2sc3c(c2c1)CCN(c1nc2c(c(NC4(CO)CCC4)n1)[S+]([O-])CC2)C3 (stereo not drawn) [Compound 82] |
| 0.621 | – | 1.07 | 5.79 | 47.82 | 97.34 | – | – | – | [O-][S+]1CCc2nc(N3CC[C@@H]4c5ccccc5OC[C@H]4C3)nc(NC3(CO)CCC3)c21 (stereo partly drawn) [Compound 83] |
| 0.085 | – | 0.157 | 41.7 | 97.0 | 101.1 | – | – | – | [O-][S+]1CCc2nc(N3CCc4cc(-c5cnco5)ccc4C3)nc(NC3(CO)CCC3)c21 (stereo not drawn) [Compound 85] |
| 0.24 | – | 0.481 | 8.69 | 63.13 | 97.77 | – | – | – | CN1CCN(c2ccc3c(c2)CCN(c2nc4c(c(NC5(CO)CCC5)n2)[S+]([O-])CC4)C3)C1=O (stereo not drawn) [Compound 86] |
| 0.19 | – | 0.385 | 14.99 | 65.79 | 97.23 | – | – | – | [O-][S+]1CCc2nc(N3CCc4cc(-n5ccnc5)ccc4C3)nc(NC3(CO)CCC3)c21 (stereo not drawn) [Compound 90] |
| 0.142 | – | 0.233 | 19.25 | 86.01 | 99.96 | – | – | – | [O-][S+]1CCc2nc(N3CCc4cc(-n5cccn5)ccc4C3)nc(NC3(CO)CCC3)c21 (stereo not drawn) [Compound 91] |
| 0.161 | – | 0.776 | 3.35 | 43.69 | 98.17 | – | – | – | [O-][S+]1CCc2nc(N3CCc4cc(N5CCCC5)ccc4C3)nc(NC3(CO)CCC3)c21 (stereo not drawn) [Compound 92] |
| 0.344 | – | 0.603 | 14.02 | 61.02 | 94.24 | – | – | – | CS(=O)(=O)c1ccc2c(c1)CCN(c1nc3c(c(NC4(CO)CCC4)n1)[S+]([O-])CC3)C2 (stereo not drawn) [Compound 93] |
| 0.0712 | – | 0.125 | 34.83 | 94.09 | 100.44 | – | – | – | Cn1cnc(-c2ccc3c(c2)CCN(c2nc4c(c(NC5(CO)CCC5)n2)[S+]([O-])CC4)C3)n1 (stereo not drawn) [Compound 94] |
| 0.426 | – | 1.15 | 6.00 | 47.68 | 97.30 | – | – | – | [O-][S+]1CCc2nc(N3CCc4c(ncc5cc(Cl)ccc45)C3)nc(NC3(CO)CCC3)c21 (stereo not drawn) [Compound 100] |
| 0.338 | – | 0.873 | 2.83 | 38.89 | 95.41 | – | – | – | [O-][S+]1CCc2nc(N3CCc4c(c(NCCO)nc5cc(Cl)ccc45)C3)nc(NC3(CO)CCC3)c21 (stereo not drawn) [Compound 103] |
